Measurements: PMC7044277 (Nature Communications, 2020)
pEC50, pKi: −log10 of the molar value. Values joined by “and” are separate entries in the source; they are usually repeats but may differ in a detail not shown here. Equal values may be shown once.

What was measured:
5HT4 = target: T1, 5HT4 (Homo sapiens, UniProt Q13639); assay: β-arrestin2 recruitment (Tango); type: cell-based; conditions: Fig_S10n; for β-arrestin2 recruitment response (dose-response source data, replicate values): drug alone; for β-arrestin2 recruitment response in presence of serotonin (replicate values): +10μM serotonin
T1 construct: expressed in transfected cells; host or cells: HTLA cells expressing TEV-fused β-arrestin2

320 non-olfactory GPCRs = type: cell-based; conditions: compound at 1 μM
[1] = system: serotonin receptor of Fig_S10h (subtype not given); assay: β-arrestin2 recruitment (Tango), agonist activity, source data Fig_S10h; type: cell-based, human; conditions: drug alone
DRD2 F1103.28A [2] = target: T2, DRD2 F1103.28A (Homo sapiens, UniProt P14416, F110A); type: binding; design: expressed in transfected cells; host or cells: HEK293T (ATCC CRL-11268); conditions: DRD2 F1103.28A; read-out: Ki
DRD2 F1103.28A [3] = target: T2, DRD2 F1103.28A; assay: Gαi/o-mediated cAMP inhibition (GloSensor), mutant; type: cell-based; design: expressed in transfected cells; host or cells: HEK293T (ATCC CRL-11268)

T1 sequence (Q13639 whole entry, the tested form may be a part): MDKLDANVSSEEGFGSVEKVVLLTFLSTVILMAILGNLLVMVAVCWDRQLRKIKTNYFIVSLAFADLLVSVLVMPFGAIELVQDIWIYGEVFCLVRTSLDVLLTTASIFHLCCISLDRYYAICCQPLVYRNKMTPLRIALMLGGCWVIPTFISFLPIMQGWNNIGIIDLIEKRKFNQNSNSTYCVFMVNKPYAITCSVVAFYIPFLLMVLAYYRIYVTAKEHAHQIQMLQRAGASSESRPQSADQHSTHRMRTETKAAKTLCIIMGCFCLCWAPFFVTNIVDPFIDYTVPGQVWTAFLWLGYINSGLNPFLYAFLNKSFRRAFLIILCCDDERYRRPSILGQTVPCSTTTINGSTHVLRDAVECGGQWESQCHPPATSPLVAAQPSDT
T2 sequence (P14416 whole entry F110A): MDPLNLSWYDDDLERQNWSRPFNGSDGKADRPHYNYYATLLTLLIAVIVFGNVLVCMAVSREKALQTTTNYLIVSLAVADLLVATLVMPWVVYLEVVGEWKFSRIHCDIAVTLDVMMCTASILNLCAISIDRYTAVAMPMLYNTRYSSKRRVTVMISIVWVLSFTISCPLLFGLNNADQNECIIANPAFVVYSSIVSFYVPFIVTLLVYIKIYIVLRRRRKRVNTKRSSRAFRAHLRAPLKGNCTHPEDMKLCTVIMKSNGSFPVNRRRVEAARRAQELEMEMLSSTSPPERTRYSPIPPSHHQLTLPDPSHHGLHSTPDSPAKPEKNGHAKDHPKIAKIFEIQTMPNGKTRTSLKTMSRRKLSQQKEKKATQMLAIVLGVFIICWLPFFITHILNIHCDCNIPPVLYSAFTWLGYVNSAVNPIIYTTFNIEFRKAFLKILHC

Question: With `CCOc1cccc2cc([C@H](C)NCC3(O)CCCCC3)oc12` [O4SE6] as the molecule, how does the “β-arrestin2 recruitment response (dose-response source data, replicate values)” value (5HT4; Log[Drug] -7) read?
Answer: 0.5278 and 0.7799 and 0.9481 and 2.146 and 2.021 and 0.7677 and -0.1447 and -0.08084 and 0.1108

Question: What about the “β-arrestin2 recruitment response in presence of serotonin (replicate values)” value (5HT4; Log[Drug] -7.52) of the same molecule?
Answer: 78.4713 and 70.1922 and 60.1136 and 64.4542 and 62.425 and 65.749 and 65.0234 and 67.6362 and 68.0461

Question: And the “β-arrestin2 recruitment response (dose-response source data, replicate values)” value (5HT4; Log[Drug] -7.52)?
Answer: 1.098 and 0.2279 and 1.538 and 2.02 and 1.183 and 1.483 and -0.2732 and 0.4713 and 0.304

Question: What about the “β-arrestin2 recruitment response in presence of serotonin (replicate values)” value (5HT4; Log[Drug] -8) of the same molecule?
Answer: 79.2214 and 70.638 and 63.1387 and 67.7854 and 68.476 and 59.8854 and 62.949 and 70.8028 and 62.3669

Question: And the “β-arrestin2 recruitment response (dose-response source data, replicate values)” value (5HT4; Log[Drug] -8)?
Answer: 1.665 and 0.2788 and 1.143 and 1.476 and 0.7729 and 1.19 and -0.1116 and -0.1148 and 0.2053

Question: And the “β-arrestin2 recruitment response in presence of serotonin (replicate values)” value (5HT4; Log[Drug] -8.52)?
Answer: 63.0325 and 66.617 and 68.5815 and 61.4979 and 62.8385 and 69.3531 and 69.1189 and 65.2821 and 54.9164

Question: And the “β-arrestin2 recruitment response (dose-response source data, replicate values)” value (5HT4; Log[Drug] -8.52)?
Answer: 2.264 and 0.3266 and 1.143 (2×) and 0.899 and 0.9417 and -0.211 and 0.2724 and 0.6928

Question: And the “β-arrestin2 recruitment response in presence of serotonin (replicate values)” value (5HT4; Log[Drug] -9)?
Answer: 58.3354 and 69.9419 and 59.2835 and 65.9 and 67.9417 and 62.0583 and 73.9242 and 95.122 and 58.9489

Question: What about the “β-arrestin2 recruitment response (dose-response source data, replicate values)” value (5HT4; Log[Drug] -9) of the same molecule?
Answer: 0.7979 and 0.203 and 1.266 and 0.9417 and 1.353 and 2.815 and 0.5659 and 0.7244 and 0.2029

Question: And the “β-arrestin2 recruitment response in presence of serotonin (replicate values)” value (5HT4; Log[Drug] -9.52)?
Answer: 62.0248 and 69.3453 and 57.8541 and 56.9479 and 71.0625 and 61.8156 and 76.4214 and 67.9653 and 74.0649

Question: What about the “β-arrestin2 recruitment response (dose-response source data, replicate values)” value (5HT4; Log[Drug] -9.52) of the same molecule?
Answer: 0.3303 and 1.247 and 2.286 and 1.442 and 0.7292 and 1.103 and 0.01536 and 0.2716 and 0.5247

Question: What about the “β-arrestin2 recruitment response in presence of serotonin (replicate values)” value (5HT4; Log[Drug] -10) of the same molecule?
Answer: 55.5618 and 63.9322 and 63.2088 and 69.7104 and 76.0792 and 67.2 and 78.0601 and 69.8546 and 82.4903

Question: What about the “β-arrestin2 recruitment response (dose-response source data, replicate values)” value (5HT4; Log[Drug] -10) of the same molecule?
Answer: 0.4781 and 0.7712 and 1.0661 and 1.899 and 1.272 and 1.189 and -0.1148 and 0.1124 and 0.5271

Question: What about the “β-arrestin2 recruitment response in presence of serotonin (replicate values)” value (5HT4; Log[Drug] -10.52) of the same molecule?
Answer: 62.9859 and 78.1652 and 74.7819 and 66.7635 and 61.4146 and 52.4937 and 74.1336 and 65.8957 and 89.463

Question: What about the “β-arrestin2 recruitment response (dose-response source data, replicate values)” value (5HT4; Log[Drug] -10.52) of the same molecule?
Answer: 1.621 and 1.692 and 0.9661 and 0.6417 and 1.106 and 1.144 and 0.4066 and -0.08327 and 0.2078

Question: What about the “β-arrestin2 recruitment response in presence of serotonin (replicate values)” value (5HT4; Log[Drug] -11) of the same molecule?
Answer: 82.0434 and 83.1157 and 82.0887 and 77.05 and 73.7271 and 49.1812 and 80.7368 and 81.7578 and 70.7931

Question: What about the “β-arrestin2 recruitment response (dose-response source data, replicate values)” value (5HT4; Log[Drug] -11) of the same molecule?
Answer: 0.3285 and 0.5731 and 1.621 and 1.898 and 1.603 and 0.8979 and -0.2789 and 0.3428 and 0.1099

Question: What about the “β-arrestin2 recruitment response in presence of serotonin (replicate values)” value (5HT4; Log[Drug] -11.52) of the same molecule?
Answer: 82.4482 and 79.2239 and 74.7068 and 70.1292 and 64.8323 and 73.1583 and 68.2329 and 84.5356 and 79.3843

Question: What about the “β-arrestin2 recruitment response (dose-response source data, replicate values)” value (5HT4; Log[Drug] -11.52) of the same molecule?
Answer: 0.3061 and 0.7799 and 0.4241 and 1.31 and 1.564 and 0.9802 and 0.3743 and -0.1811 and 0.5651

Question: And the “β-arrestin2 recruitment response in presence of serotonin (replicate values)” value (5HT4; Log[Drug] -12)?
Answer: 88.7057 and 105.09 and 99.6448 and 69.9375 and 73.7219 and 66.8948 and 92.7613 and 90.5301 and 90.978

Question: And the “β-arrestin2 recruitment response (dose-response source data, replicate values)” value (5HT4; Log[Drug] -12)?
Answer: 1.557 and 0.8835 and 0.5619 and 0.6979 and 1.198 and 1.239 and 0.08246 and 0.08488 and 0.4382

Question: What about the “agonism across 320 nonolfactory GPCRs” value (320 non-olfactory GPCRs) of the same molecule?
Answer: only DRD2 activity was observed

Question: What about the “response, single replicates of the concentration-response curve” value (“response, single replicates” for short) ([1]; Log[Drug] -6.52) of the same molecule?
Answer: -7.994

Question: What about the “response, single replicates” value ([1]; Log[Drug] -7) of the same molecule?
Answer: -2.807 and 4.395 and 8.664 and 27.4134 and 13.2513 and 15.6474 and 13.1242 and -2.417 and -10.8222

Question: What about the “response, single replicates” value ([1]; Log[Drug] -7.52) of the same molecule?
Answer: 4.715 and -8.828 and -5.606 and 8.395 and 8.216 and 0.5126 and 3.51 and 4.446 and -3.1317

Question: What about the “response, single replicates” value ([1]; Log[Drug] -8) of the same molecule?
Answer: 0.3826 and 12.2654 and 8.146 and 2.179 and 0.2337 and 9.5034 and -12.0593 and 26.3744 and -3.5174

Question: And the “response, single replicates” value ([1]; Log[Drug] -8.52)?
Answer: -10.0653 and -1.2658 and 52.2148 and 23.8014 and -4.094 and -12.033 and 16.826 and 7.508 and 15.8147

Question: And the “response, single replicates” value ([1]; Log[Drug] -9)?
Answer: 1.557 and 9.933 and -1.226 and 2.422 and 13.6662 and 4.675 and -4.947 and 1.153 and 3.825

Question: And the “response, single replicates” value ([1]; Log[Drug] -9.52)?
Answer: -5.148 and -10.9982 and -7.97 and 11.3845 and 16.9421 and 5.655 and -4.275 and -6.8476 and 18.2512

Question: And the “response, single replicates” value ([1]; Log[Drug] -10)?
Answer: 15.0958 and 7.486 and 10.8542 and 5.527 and 29.223 and 0.999 and -10.921 and 11.0828 and -0.8457

Question: And the “response, single replicates” value ([1]; Log[Drug] -10.52)?
Answer: -0.8745 and -6.646 and -1.622 and 20.5398 and 42.3766 and 10.7909 and -7.069 and -20.3001 and 10.2879

Question: And the “response, single replicates” value ([1]; Log[Drug] -11)?
Answer: -11.3698 and 19.5825 and 1.391 and 36.9549 and 6.363 and -10.581 and 12.6585 and -12.9389 and 3.331

Question: And the “response, single replicates” value ([1]; Log[Drug] -11.52)?
Answer: -4.741 and 3.94 and 12.3959 and 19.2666 and -9.551 and -8.707 and 10.8288 and -0.4553 and -7.722

Question: And the “response, single replicates” value ([1]; Log[Drug] -12)?
Answer: -3.8669 and -1.214 and 2.909 and 15.2183 and 14.2098 and -8.421 and -4.75 and -12.1063 and 12.6538

Question: What about the pKi (DRD2 F1103.28A [2]) of the same molecule?
Answer: 6.28

Question: What about the pEC50 (DRD2 F1103.28A [3]) of the same molecule?
Answer: < 5.00
